Experimental findings from patent US20240342119A1, “COMPOSITION FOR TREATING HY[…] AND KELOIDS […] THI[…] AS ACTIVE INGREDIENT” (CEL[…]., priority 2021, published 2024) are described below.

Each structure is given as a SMILES string.

This assay has as its system hypertrophic scars in rabbit ears. The assay is described as follows: rabbit ear hypertrophic scar model. It counts as in vivo, New Zealand white rabbits. The conditions noted are these: 10% compound; for epidermal thickness of hypertrophic scar / scar elevation index (SEI) / collagen density (ratio of blue-stained area to total area): 0.5 mL applied daily for 14 days, compared to control and solvent-treated group; for epidermal thickness of hypertrophic scar: H&E, FIG. 9; for scar elevation index (SEI): FIG. 10; for collagen density (ratio of blue-stained area to total area): FIG. 11; for visual evaluation score of hypertrophic scar (dermatoscope, score 0-3 of Table 1): 0.5 mL applied daily, day 14, compared to control and solvent-treated group, FIG. 8. The source says: Eight female New Zealand white rabbits (2.6 to 3 kg) were anesthetized, and wounds were formed by removing the epidermis, dermis, and perichondrium of the ear skin of the rabbits using an 8 mm biopsy punch. Three wounds were formed in an ear area of each rabbit. The rabbit's surgical site was sterilized, and the formation of hypertrophic scars was induced through natural healing for 3 weeks.
After 3-week natural healing, the complete epithelialization and hypertrophic scar formation in scar areas were confirmed, and treatment was started for each test group. The test groups were classified into a normal group (normal tissue), a control (untreated scar/hypertrophic scar), test group 1 (solve application), test group 2 (CBM-N1 10%), test group 3 (CBM-N3 10%), test group 4 (CBM-N 10%), and test group 5 (CBM-N 10%).
Each test group was treated by applying 0.5 mL of drug daily for 2 weeks (14 days), and then a tissue autopsy was performed. The biopsied tissue was stored in a 10% formalin solution to form a tissue slide. The effectiveness of hypertrophic scar treatment was confirmed through dermatoscopy and histological evaluation.
The skin tissue areas of the control and test groups were observed using a dermatoscope on the start day and end day (Day 14 of treatment) of treatment, and depending on the degree of hypertrophic scar formation, scores were given for visual evaluation as shown in Table 1 below.
A paraffin block of the fixed ear tissue of a rabbit was prepared, and sliced to a thickness of 3 μm, thereby preparing a tissue slide. Following hydration, staining was performed using hematoxylin and eosin solutions. The stained tissue slides were photographed using a 200× microscope, and epithelial thicknesses were measured using ZEISS ZEN Microscope Software.
The fixed ear tissue of a rabbit was stained with a hematoxylin or eosin solution in the same manner as in the epidermal thickness analysis method, and the stained tissue slide was photographed at 50× magnification. Using ZEISS ZEN Microscope Software, the length from the epidermis to the cartilage was measured for the scar area and normal area, and the scar evaluation index (SEI) was calculated from the results. Here, the SEI is the value calculated by dividing ‘the length from the epidermis to the cartilage at the thickest point in the scar area’ by ‘the length from the epidermis to the cartilage in the normal skin area.’
A paraffin block of the fixed ear tissue of a rabbit was prepared, and sliced to a thickness of 3 μm, thereby preparing a tissue slide. Following hydration, staining was performed using Biebrich Scarlet-Acid Fuchsin solution for 5 minutes, and washing was performed and then staining was performed again with phosphotungstic acid/phosphomolybdic acid for 5 minutes.
Subsequently, staining was performed with aniline blue and an acetic acid solution, and the stained tissue slides were photographed at 400× magnification. In the photographs that were taken, the ratio of the blue-stained area, that is, the area occupied by collagen, to the total area was analyzed using Image J (The National Institutes of Health, USA).

As to `NC(=O)C[S+]([O-])C(c1ccc(F)cc1)c1ccc(F)cc1` (stereo not shown) [CBM-N9, 2-[bis(4-fluorophenyl)methanesulfinyl]acetamide], the “epidermal thickness of hypertrophic scar” value is recorded as “thin epidermal thicknesses”; the “scar elevation index (SEI)” value is given as “lower SEI values”; the “collagen density (ratio of blue-stained area to total area)” value was “lower collagen densities”; the “visual evaluation score of hypertrophic scar (dermatoscope, score 0-3 of Table 1)” value (“visual evaluation score” for short) is “much lower”.
In the case of `NC(=O)C[S+]([O-])C(c1ccccc1)c1ccccc1` (stereo not shown) [CBM-N1, 2-(benzhydrylsulfinyl)acetamide, reference compound], the “epidermal thickness of hypertrophic scar” value is given as “thin epidermal thicknesses”; the “scar elevation index (SEI)” value is listed as “lower SEI values”; the “collagen density (ratio of blue-stained area to total area)” value was “lower collagen densities”; the “visual evaluation score” value is listed as “much lower”.
Taken in the same sequence, the figures for `O=C(CSC(c1ccccc1)c1ccccc1)Nc1ccccc1` [CBM-N3, 2-(benzhydrylthio)-N-phenylacetamide] were “thin epidermal thicknesses”, “lower SEI values”, “lower collagen densities” and “much lower”.
Regarding `O=C(C[S+]([O-])C(c1ccccc1)c1ccccc1)NCC1CCCO1` (stereo not shown) [CBM-N5, 2-(benzhydrylsulfinyl)-N-[(tetrahydrofuran-2-yl)methyl]acetamide], the “epidermal thickness of hypertrophic scar” value is recorded as “thin epidermal thicknesses”; the “scar elevation index (SEI)” value is recorded as “lower SEI values”; the “collagen density (ratio of blue-stained area to total area)” value is “lower collagen densities”; the “visual evaluation score” value was “much lower”.
